# Tests used:
# Assay type in all cases: in vivo
# [1] = test system: Puccinia recondita f. sp. tritici; assay: Test B: wheat leaf rust, preventive spray on wheat seedlings; details: 50 ppm, 100 = 100% disease control, 0 = no control relative to controls; for pest or weed control at 50 ppm: read-out: Test B disease control rating (wheat leaf rust)
# Excerpt: General protocol for preparing test suspensions for Tests A-F: the test compounds were first dissolved in acetone in an amount equal to 3% of the final volume and then suspended at the desired concentration (in ppm) in acetone and purified water (50/50 mix by volume) containing 250 ppm of the surfactant PEG400 (polyhydric alcohol esters). The resulting test suspensions were then used in Tests A-F. The test solution was sprayed to the point of run-off on wheat seedlings. The following day the seedlings were inoculated with a spore suspension of Puccinia recondita f. sp. tritici (the causal agent of wheat leaf rust) and incubated in a saturated atmosphere at 20° C. for 24 h, and then moved to a growth chamber at 20° C. for 7 days, after which time disease ratings were made. A rating of 100 indicates 100% disease control and a rating of 0 indicates no disease control (relative to the controls). A dash (-) indicates the compound was not tested.
# Septoria tritici = assay: Test A: wheat leaf blotch, preventive spray on wheat seedlings; details: 50 ppm, 100 = 100% disease control, 0 = no control relative to controls; for pest or weed control at 50 ppm: Zymoseptoria tritici, read-out: Test A disease control rating (wheat leaf blotch)
# Excerpt: General protocol for preparing test suspensions for Tests A-F: the test compounds were first dissolved in acetone in an amount equal to 3% of the final volume and then suspended at the desired concentration (in ppm) in acetone and purified water (50/50 mix by volume) containing 250 ppm of the surfactant PEG400 (polyhydric alcohol esters). The resulting test suspensions were then used in Tests A-F. The test solution was sprayed to the point of run-off on wheat seedlings. The following day the seedlings were inoculated with a spore suspension of Septoria tritici (the causal agent of wheat leaf blotch) and incubated in a saturated atmosphere at 24° C. for 48 h, and then moved to a growth chamber at 20° C. for 17 days, after which time disease ratings were made. A rating of 100 indicates 100% disease control and a rating of 0 indicates no disease control (relative to the controls). A dash (-) indicates the compound was not tested.
# [2] = test system: Blumeria graminis f. sp. tritici; assay: Test C: wheat powdery mildew, preventive spray on wheat seedlings; details: 50 ppm, rated after 8 days, 100 = 100% disease control, 0 = no control; for pest or weed control at 50 ppm: Blumeria graminis, 192 h, read-out: Test C disease control rating (wheat powdery mildew)
# Excerpt: General protocol for preparing test suspensions for Tests A-F: the test compounds were first dissolved in acetone in an amount equal to 3% of the final volume and then suspended at the desired concentration (in ppm) in acetone and purified water (50/50 mix by volume) containing 250 ppm of the surfactant PEG400 (polyhydric alcohol esters). The resulting test suspensions were then used in Tests A-F. The test suspension was sprayed to the point of run-off on wheat seedlings. The following day the seedlings were inoculated with a spore dust of Blumeria graminis f. sp. tritici, (also known as Erysiphe graminis f. sp. tritici, the causal agent of wheat powdery mildew) and incubated in a growth chamber at 20° C. for 8 days, after which time visual disease ratings were made. A rating of 100 indicates 100% disease control and a rating of 0 indicates no disease control (relative to the controls). A dash (-) indicates the compound was not tested.
# Alternaria solani = assay: Test F: tomato early blight, preventive spray on tomato seedlings; details: 50 ppm, 100 = 100% disease control, 0 = no control; for pest or weed control at 50 ppm: Alternaria solani, read-out: Test F disease control rating (tomato early blight)
# Excerpt: (§1) General protocol for preparing test suspensions for Tests A-F: the test compounds were first dissolved in acetone in an amount equal to 3% of the final volume and then suspended at the desired concentration (in ppm) in acetone and purified water (50/50 mix by volume) containing 250 ppm of the surfactant PEG400 (polyhydric alcohol esters). The resulting test suspensions were then used in Tests A-F. The test suspension was sprayed to the point of run-off on tomato seedlings. The following day the seedlings were inoculated with a spore suspension of Alternaria solani (the causal agent of tomato early blight) and incubated in a saturated atmosphere at 27° C. for 48 h, and then moved to a growth chamber at 20° C. for 3 days, after which time visual disease ratings were made. A rating of 100 indicates 100% disease control and a rating of 0 indicates no disease control (relative to the controls). A dash (-) indicates the compound was not tested.
# Botrytis cinerea = assay: Test E: tomato Botrytis, preventive spray on tomato seedlings; details: 50 ppm, 100 = 100% disease control, 0 = no control; for pest or weed control at 50 ppm: Botrytis cinerea, read-out: Test E disease control rating (tomato Botrytis)
# Excerpt: as §1, with “Botrytis cinerea” for “Alternaria solani”, “Botrytis)” for “early blight)”, “20°” for “27°”, “24°” for “20°”
# Phakopsora pachyrhizi = assay: Test D: Asian soybean rust, preventive spray on soybean seedlings; details: 50 ppm, 100 = 100% disease control, 0 = no control; for pest or weed control at 50 ppm: Phakopsora pachyrhizi, read-out: Test D disease control rating (Asian soybean rust)
# Excerpt: General protocol for preparing test suspensions for Tests A-F: the test compounds were first dissolved in acetone in an amount equal to 3% of the final volume and then suspended at the desired concentration (in ppm) in acetone and purified water (50/50 mix by volume) containing 250 ppm of the surfactant PEG400 (polyhydric alcohol esters). The resulting test suspensions were then used in Tests A-F.
# The test solution was sprayed to the point of run-off on soybean seedlings. The following day the seedlings were inoculated with a spore suspension of Phakopsora pachyrhizi (the causal agent of Asian soybean rust) and incubated in a saturated atmosphere at 22° C. for 24 h and then moved to a growth chamber at 22° C. for 8 days, after which time visual disease ratings were made.
# A rating of 100 indicates 100% disease control and a rating of 0 indicates no disease control (relative to the controls). A dash (-) indicates the compound was not tested.
Compound,Test B disease control rating (wheat leaf rust) [1] [%],Test A disease control rating (wheat leaf blotch) (Septoria tritici) [%],Test C disease control rating (wheat powdery mildew) [2] [%],Test F disease control rating (tomato early blight) (Alternaria solani) [%],Test E disease control rating (tomato Botrytis) (Botrytis cinerea) [%],Test D disease control rating (Asian soybean rust) (Phakopsora pachyrhizi) [%],pest or weed control at 50 ppm [1] [%],pest or weed control at 50 ppm (Septoria tritici) [%],pest or weed control at 50 ppm [2] [%],pest or weed control at 50 ppm (Alternaria solani) [%],pest or weed control at 50 ppm (Botrytis cinerea) [%],pest or weed control at 50 ppm (Phakopsora pachyrhizi) [%]
Cc1nn(C)c(Nc2c(F)cc(Cl)cc2[N+](=O)[O-])c1-c1ccc(Cl)cc1Cl [Compound 11],98,100,97,99,98,0,,,,,,
Cc1nn(C)c(Nc2ccccc2[N+](=O)[O-])c1-c1ccc(F)cc1Br [Compound 139],86,98,76,33,100,0,,,,,,
Cc1cc(Cl)c(Nc2c(-c3ccc(F)cc3Cl)c(C)nn2C)c([N+](=O)[O-])c1 [Compound 31],100,100,100,76,99,98,,,,,,
Cc1nn(C)c(Nc2c(F)cc(I)cc2[N+](=O)[O-])c1-c1ccc(F)cc1Cl [Compound 47],97,100,89,96,95,92,,,,,,
Cc1nn(C)c(Nc2ccc(Br)cc2[N+](=O)[O-])c1-c1ccc(F)cc1Cl [Compound 91],88,99,84,26,99,0,,,,,,
"COc1ccc(-c2c(C)nn(C)c2Nc2c(Cl)cc(F)cc2[N+](=O)[O-])c(Cl)c1 [Compound 73, N-(2-chloro-4-fluoro-6-nitrophenyl)-4-(2-chloro-4-methoxyphenyl)-1,3-dimethyl-1H-pyrazol-5-amine]",,,,,,,100,100,96,97,99,98
COc1ccc(-c2c(C)nn(C)c2Nc2ccc(Cl)cc2[N+](=O)[O-])c(Cl)c1 [Compound 74],86,99,81,85,99,74,,,,,,
COc1ccc(-c2c(C)nn(C)c2Nc2c(Cl)cc(Cl)cc2[N+](=O)[O-])c(Cl)c1 [Compound 65],89,94,56,46,16,66,,,,,,
COc1cc(F)c(-c2c(C)nn(C)c2Nc2c(Cl)cc(Cl)cc2[N+](=O)[O-])c(F)c1 [Compound 82],100,100,58,97,96,59,,,,,,
CCc1nn(C)c(Nc2c(F)cc(F)cc2[N+](=O)[O-])c1-c1ccc(F)cc1F [Compound 50],98,100,100,98,92,0,,,,,,
Cc1nn(C)c(Nc2c(Cl)cc(Cl)cc2[N+](=O)[O-])c1-c1ccc(F)cc1Cl [Compound 59],100,100,99,92,99,96,,,,,,
Cc1nn(C)c(Nc2c(F)cccc2[N+](=O)[O-])c1-c1ccc(Cl)cc1F [Compound 12],99,100,81,53,97,0,,,,,,
"Cc1nn(C)c(Nc2c(F)cc(Br)cc2[N+](=O)[O-])c1-c1ccc(F)cc1Cl [Compound 61, N-(4-bromo-2-fluoro-6-nitrophenyl)-4-(2-chloro-4-fluorophenyl)-1,3-dimethyl-1H-pyrazol-5-amine]",,,,,,,100,100,99,99,99,84
Cc1cccc([N+](=O)[O-])c1Nc1c(-c2c(F)cc(F)cc2F)c(C)nn1C [Compound 167],100,100,98,98,95,65,,,,,,
Cc1nn(C)c(Nc2c(F)cccc2[N+](=O)[O-])c1-c1c(Cl)cccc1Cl [Compound 53],100,100,98,98,98,0,,,,,,

# Reference: patent publication US12398107B2, “Fungicidal nitroanilino substituted pyrazoles” (FMC Corporation, priority 2018, dated 2025)
